In the NIST ThermoML archive (doi:10.1021/acs.jced.7b00257):

Experiment: mn = molality of the nth substance listed, in mol/kg
Settings: 100 kPa, Liquid; for speed of sound: Frequency=3 MHz, Sing-around technique in a fixed-path interferometer; for mass density: Vibrating tube method

N.O=P(O)(O)O [ammonium dihydrogen phosphate] + O
Settings | mass density, 288.15 K [kg/m3] | mass density, 298.15 K [kg/m3] | mass density, 308.15 K [kg/m3] | mass density, 318.15 K [kg/m3] | speed of sound, 288.15 K [m/s] | speed of sound, 298.15 K [m/s] | speed of sound, 308.15 K [m/s] | speed of sound, 318.15 K [m/s]
m1 = 0.5 | 1029.89 | 1026.93 | 1023.68 | 1019.89 | 1507.2 | 1534.7 | 1555.7 | 1570.8
m1 = 1 | 1057.21 | 1054.11 | 1050.64 | 1046.76 | 1544.3 | 1569.5 | 1588.6 | 1602.3
m1 = 1.5 | 1082.49 | 1079.39 | 1075.63 | 1071.69 | 1579.5 | 1602.2 | 1619.5 | 1631.7
m1 = 2 | 1105.65 | 1102.5 | 1098.68 | 1094.7 | 1613.6 | 1634.1 | 1649.6 | 1660.4
